Source: patent US20140371258A1 (priority 2010, published 2014)
Entries after “also recorded” stand apart in the source; their conditions may differ. Read-outs that look alike come from different tables or passages of the source.

Tests used:
[1] = test system: human NCI-H460 lung tumor; assay: NCI-H460 lung tumor xenograft efficacy study; format: in vivo
Source text: The purpose of the study was to evaluate the antitumor efficacy of exemplary PEG topotecan conjugates along with unmodified topotecan when administered against subcutaneously (sc) implanted human NCI-H460 lung tumor xenografts in male athymic nude mice.
Six-weeks-old male athymic nude mice were purchased from Charles River (Wilmington, Mass.) and acclimated in the laboratories prior to experimentation. […] Cages were changed twice weekly.
Thirty-to-forty mg fragments of human NCI-H460 lung tumor were implanted sc in mice near the right axillary area using a 12-gauge trocar needle and allowed to grow.
On each day of injection, a 15.625 mg/mL solution of PEG-topotecan (the amount of PEG-topotecan being 31.25 times the topotecan dosage) was prepared in saline. A portion of this solution was diluted with saline to the lower concentrations. All three solutions were quite viscous. A 0.5 mg/mL solution of topotecan was prepared in saline on each day of treatment. Lower dosages were achieved by diluting this solution with saline. All dosing solutions were administered by exact body weight using an injection volume of 0.2 mL/10 g of body weight. Both PEG-topotecan and topotecan solutions were prepared in subdued light with PEG-topotecan injected within two hours of preparation and topotecan injected within 30 minutes of preparation.
The experiment consisted of six treatment groups of ten mice per group and one vehicle-treated control group also with ten mice for a total of 70 mice on the first day of treatment. Both PEG-topotecan and topotecan were administered intravenously (iv) as three injections given four days apart (q4d×3) at dosages of 10, 2.5, and 1 mg/kg/dose. The control group (group 1) was treated with the vehicle (saline), which was also administered iv q4d×3.
The study was terminated 55 days after tumor implantation. Any animal whose tumor became ulcerated or reached 4,000 mg was euthanized prior to study termination.

in vivo = conditions: mouse, iv
Procedure: (§1) The experiment consisted of 3 treatment groups of 36 mice per group plus an untreated group of 3 mice for a total of 39 mice on the day of treatment. […] The above ‘topotecan-equivalent’ concentrations were calculated based on the topotecan content for each compound. […] At intervals (0.5, 1, 2, 4, 8, 12, 24, 72, 120, 168, 216 hr) following drug administration, 3 animals per treatment group were sacrificed, blood collected via cardiac puncture, and tumor tissue was excised. Tumor tissue was flash frozen and stored at −80° C. until analysis. Blood was processed to obtain plasma and stabilizers added as described for PK studies in beagle dogs. Samples were frozen and stored at −80° C. until analysis.
(§2) Plasma and tumor-tissue were analyzed by LC/MS-MS for topotecan. Data was reported as ng/mL for plasma samples and ng/mg for tumor samples.

HT29 human colon tumor = assay: HT29 colorectal cancer xenograft efficacy study; conditions: for Non-Specific Deaths / Regressions (100%) / Tumor Free on Day 99: 10 animals per group; for Growth Delay (T-C): based on median days to 1000 mg
Source text: Six-weeks-old female athymic NCr-nu/nu mice were purchased from Charles River Laboratories, Inc. (Wilmington, Mass.) and acclimated in the laboratories for nine days prior to experimentation. The mice were housed in microisolator cages, up to five animals per cage. Each animal in the cage was identified by an ear punch. All mice were on a 12-hour light/dark cycle and received filtered municipal water and sterilizable rodent diet (Harlan-Teklad TD8656) ad libitum. Cages were changed twice weekly. The animals were observed daily and clinical signs were noted.
Thirty-to-forty mg fragments of HT29 human colon tumor, propagated in an in vivo passage, were implanted sc on the right flank area of mice using a12-gauge trocar needle. The day of tumor implantation was designated as Day 0. […] A sufficient number of mice were implanted so that animals with tumors in a weight range as narrow as possible were selected for the trial on the day of treatment initiation (Day 14 after tumor implantation). Those animals selected with tumors in the proper size range on Day 14 were placed in several large cages and then assigned randomly to the various treatment groups.
The lower dosage was achieved by further dilution with saline. The dosing solutions were treated as light-sensitive (formulated under amber lights and dispensed into brown bottles), stored at room temperature, and administered within 2 h of formulation. […] The lower dosage was achieved by further dilution with saline. The dosing solutions were treated as light-sensitive (formulated under amber lights and dispensed into brown bottles), were stored at room temperature, and were administered within 2 h of formulation. Topotecan was prepared at a concentration of 1.0 mg/mL on each day of treatment in saline. The lower dosages were achieved by further dilutions with saline. The dosing solutions were treated as light-sensitive (formulated under amber lights and dispensed into brown bottles), were kept on ice, and were administered within 30 min of formulation. Saline was obtained from Phoenix Pharmaceutical, Inc.
The study consisted of a vehicle-treated control group and seven treatment groups with ten mice each for a total of 80 mice at the start of treatment. […] The control group was treated intravenously with saline on the same treatment schedule. All treatments were administered by exact body weight with the injection volume being 0.2 mL/10 g of body weight.
Tumors were measured (the limit of detection being 32 mg (4×4 mm)) and the animals were weighed twice weekly starting with the first day of treatment. Tumor volume was determined by caliper measurements (mm) and using the formula for an ellipsoid sphere: L×W^2/2=mm^3, where L and W refer to the larger and smaller perpendicular dimensions collected at each measurement. This formula is also used to calculate tumor weight, assuming unit density (1 mm^3=1 mg). Individual tumor and body weight measurements were collected.
Number of non-specific deaths, number of complete tumor regressions, number of tumor-free survivors on Day 99, and median number of days for the tumors in each group to reach 1,000 mg were calculated. The median time (in days) to reach 1,000 mg was used in the calculation of the overall delay in the growth of the median tumor (T-C; T=treated group; C=control group). Individual tumor weights, group median tumor weights, TIC (%) based on median tumor weights, group mean tumor weights, standard error of the mean tumor weights, the time for the individual animal's tumor to reach 1,000 mg, individual body weights, mean body weights, and the change in mean body weights relative to the mean body weight on the first day of collection (in grams and as a percent) were collected.

[2] = mouse, in vivo, iv
Procedure: as §1, §2

[3] = humans, cited from earlier work
[4] = Maximum tolerated dose (tolerance) study, Q4D×3 iv; format: in vivo, female athymic NCr-nu/nu mice
Single-dose MTD study = assay: Single-dose MTD study; parameters: species or system mice; conditions: mouse, in vivo, intravenous, topotecan-equivalent
[5] = test system: human NCI-H460 lung tumor; assay: H460 tumor growth after a single IV administration; format: in vivo; conditions: single iv injection at each compound's MTD; FIG. 7
Procedure: Six-weeks-old female athymic nude mice were purchased from Charles River (Wilmington, Mass.) and acclimated in the laboratories prior to experimentation. […] The animals were observed daily and clinical signs were noted.
Thirty-to-forty mg fragments of human NCI-H460 lung tumor were implanted sc in mice near the right axillary area using a 12-gauge trocar needle and allowed to grow. The day of tumor implantation was designated as day −7. Tumors were allowed to reach 100-234 mg in weight (100-234 mm^3 in size) before the start of treatment. A sufficient number of mice were implanted so that tumors in a weight range as narrow as possible were selected for the trial on the day of treatment initiation (day 7 after tumor implantation). […]
The experiment consisted of 3 treatment groups of 36 mice per group plus an untreated group of 3 mice for a total of 39 mice on the day of treatment. […] The above ‘topotecan-equivalent’ concentrations were calculated based on the topotecan content for each compound. […]
The sc tumors were measured and the animals were weighed twice weekly starting with the first day of treatment. Tumor volume was determined by caliper measurements (mm) and using the formula for an ellipsoid sphere: L×W^2/2=mm^3, where L and W refer to the larger and smaller perpendicular dimensions collected at each measurement. […]

Question: Which “growth delay compared with PEG-topotecan at the same dosage” value ([1]; 1.0 mg/kg/dose) does the source give for CC[C@@]1(O)C(=O)OCc2c1cc1n(c2=O)Cc2cc3c(CN(C)C)c(O)ccc3nc2-1 [topotecan, (S)-10-[(dimethylamino)methyl]-4-ethyl-4,9-dihydroxy-1H-pyrano[3′,4′:6,7]indolizino[1,2-b]quinoline-3,14(4H,12H)-dione] here?
Answer: Its value is “significantly greater”.

Question: What about the deaths ([1]; 1.0 mg/kg/dose iv q4d×3) of the same compound?
Answer: The deaths was “without deaths”.

Question: What about the deaths ([1]; 2.5 mg/kg/dose iv q4d×3) of the same compound?
Answer: The deaths was “without deaths”.

Question: What about the deaths ([1]; 10 mg/kg/dose iv q4d×3) of the same compound?
Answer: Its deaths is “one”.

Question: And the concentration at 5 day (in vivo)?
Answer: Its concentration at 5 day is less than 1000 ng/g.

Question: What about the “Median Days to 1000 mg” value (HT29 human colon tumor; 7.5 mg/kg/inj iv Q4Dx3(14)) of the same compound?
Answer: Its value is 38.5 days.

Question: And the “Non-Specific Deaths” value (HT29 human colon tumor; 7.5 mg/kg/inj iv Q4Dx3(14))?
Answer: The value was 0.

Question: What about the “Regressions (100%)” value (HT29 human colon tumor; 7.5 mg/kg/inj iv Q4Dx3(14)) of the same compound?
Answer: The value was 0.

Question: What about the “Tumor Free on Day 99” value (HT29 human colon tumor; 7.5 mg/kg/inj iv Q4Dx3(14)) of the same compound?
Answer: Its value is 0.

Question: What about the “Growth Delay (T-C)” value (HT29 human colon tumor; 7.5 mg/kg/inj iv Q4Dx3(14)) of the same compound?
Answer: Its value is 4.4 days.

Question: And the “Median Days to 1000 mg” value (HT29 human colon tumor; 15 mg/kg/inj iv Q4Dx3(14))?
Answer: The value was 46.8 days.

Question: And the “Non-Specific Deaths” value (HT29 human colon tumor; 15 mg/kg/inj iv Q4Dx3(14))?
Answer: Its value is “two”.

Question: What about the “Regressions (100%)” value (HT29 human colon tumor; 15 mg/kg/inj iv Q4Dx3(14)) of the same compound?
Answer: The value was 0.

Question: What about the “Tumor Free on Day 99” value (HT29 human colon tumor; 15 mg/kg/inj iv Q4Dx3(14)) of the same compound?
Answer: The value was 0.

Question: And the “Non-Specific Deaths” value (HT29 human colon tumor; 15 mg/kg/inj iv Q4Dx3(14), listed as Top)?
Answer: Its value is 2.

Question: And the “Growth Delay (T-C)” value (HT29 human colon tumor; 15 mg/kg/inj iv Q4Dx3(14))?
Answer: The value was 12.7 days.

Question: What about the “Median Days to 1000 mg” value (HT29 human colon tumor; 20 mg/kg/inj iv Q4Dx3(14)) of the same compound?
Answer: Its value is 49.9 days.

Question: And the “Non-Specific Deaths” value (HT29 human colon tumor; 20 mg/kg/inj iv Q4Dx3(14))?
Answer: Its value is “two”.

Question: What about the “Regressions (100%)” value (HT29 human colon tumor; 20 mg/kg/inj iv Q4Dx3(14)) of the same compound?
Answer: The value was 0.

Question: What about the “Tumor Free on Day 99” value (HT29 human colon tumor; 20 mg/kg/inj iv Q4Dx3(14)) of the same compound?
Answer: The value was 0.

Question: What about the “Non-Specific Deaths” value (HT29 human colon tumor; 20 mg/kg/inj iv Q4Dx3(14), listed as Top) of the same compound?
Answer: Its value is 2.

Question: What about the “Growth Delay (T-C)” value (HT29 human colon tumor; 20 mg/kg/inj iv Q4Dx3(14)) of the same compound?
Answer: Its value is 15.8 days.

Question: What about the “inhibition of growth of HT29 human colon tumor xenografts” value (HT29 human colon tumor; dosage of 7.5 mg/kg/inj iv Q4D×3) of the same compound?
Answer: Its value is “minimally effective”.

Question: What about the “inhibition of growth of HT29 human colon tumor xenografts” value (HT29 human colon tumor; dosages of 20 and 15 mg/kg/inj iv Q4D×3) of the same compound?
Answer: The value was “effective”.

Question: What about the “detectability of topotecan in plasma” value [2] of the same compound?
Answer: The value was “undetectable beyond 24 hr post-injection”.

Question: What about the “biological half life t1/2” value ([3]; 30 min iv) of the same compound?
Answer: The value was 2.8 hours.

Question: And the “maximum average body weight loss” value ([4]; iv Q4D×3, 5 mg/kg/inj)?
Answer: The value was 0%.

Question: And the “maximum average body weight loss” value ([4]; iv Q4D×3, 10 mg/kg/inj)?
Answer: The value was 0%.

Question: What about the “maximum tolerated dosage (MTD)” value ([4]; iv Q4D×3, not more than 10% deaths, no more than 20% average body weight loss) of the same compound?
Answer: Its value is 15 mg/kg/inj.

Question: And the deaths ([4]; non-tumor-bearing mice, iv Q4D×3, dosages of 15, 10, and 5 mg/kg/inj)?
Answer: The deaths was “no deaths; also recorded: without deaths”.

Question: What about the MTD (Single-dose MTD study) of the same compound?
Answer: Its MTD is 20 mg/kg.

Question: And the “tumor growth inhibition / delay” value [5]?
Answer: The value was “only minimal tumor growth delay; also recorded: delayed modestly”.

Question: With camptothecin sodium as the compound, how does the “biological half life t1/2” value ([3]; bolus iv) read?
Answer: The value was 15.3 hours.
